Values joined by “and” are separate entries in the source; they are usually repeats but may differ in a detail not shown here. Equal values may be shown once. “Also recorded” adds a separate entry of the source.
How the values were obtained:
[1] = system: forebrain-committed neural progenitor cells; experiment: HD-DoE stage 5, 8-factor experiment (JQ1, Indolactam-V ...): Somatostatin expression; assay type: cell-based, human; settings: for impact on expression of Somatostatin: FIG. 21/22, in words; for factor contribution, expression of Somatostatin: positive, 8-factor experiment of FIG. 21
Method: To further guide the differentiation of forebrain-committed neural progenitor cells to somatostatin interneuron cells at stage 5, HD-DoE experiments were performed for 3 days after termination of stage 4 treatment. At this time, we focused on maximum expression of SST that was expressed in Somatostatin (+) interneurons and minimum expression of Parvalbumin that is another type of interneurons. This 8-factor experiment included JQ1, (−)-Indolactam-V, Oleic acid, BDNF, IGF-1, 2-phospho-L-Ascorbic acid, Albumax, MK2206. When the model was maximized for expression of Somatostatin, six effectors were identified that could increase its expression levels, including (−)-Indolactam-V, Oleic acid, BDNF, 2-phospho-L-ascorbic acid, Albumax, and MK2206, as shown in FIG. 21. Using dynamic profile analysis, the results of which are shown in FIG. 22, the model was modified to achieve the maximum expression level of Somatostatin and therefore (−)-Indolactam-V, BDNF, and 2-phospho-L-ascorbic acid were included while JQ-1, Oleic acid, Albumax and MK2206 were excluded. Considering the model at different optimization settings for maximum differentiation of cells toward ventral forebrain, the recipe for stage 5 of differentiation included (−)-Indolactam-V, BDNF, IGF-1, and 2-phospho-L-ascorbic acid from this HD-Doe experiment.

[2] = system: forebrain-committed neural progenitor cells; experiment: HD-DoE stage 5, 12-factor experiment (96 combinatorial media): Somatostatin expression; assay type: cell-based, human; settings: for impact on expression of Somatostatin: FIG. 26 dynamic profile, in words; for factor contribution, expression of Somatostatin: positive, 12-factor experiment of FIG. 25
Method: In another HD-DoE experiment, the results of which are shown in FIG. 25, cells were differentiated in 96 different combinatorial media made of 12 factors. These cells were treated with stage 1 to stage 4 medium for a total of 12 days prior to the experiment. […] In this model, we focused on maximum expression of Somatostatin gene expressed in somatostatin (+) interneurons. When the model was optimized for maximum expression of Somatostatin, BDNF, 2-phosph-L-Ascorbic Acid, O-LPA, N2 and Prostratin had the highest factor contributions, 1.75, 10.6, 2.7, 9.2 and 6.4 respectively. […]

[3] = system: forebrain-committed neural progenitor cells; experiment: Factor criticality analysis, stage 5 recipe; assay type: cell-based, human; settings: for contribution to the expression of SST: stage 5, experiment of FIG. 28, in words; for effect on PVALB expression / effect on Somatostatin expression: stage 5, experiment of FIG. 30, in words
Method: To assess the impact of elimination of each validated factor, dynamic profile analysis was again used to compare the expression levels of genes of interest in the absence of each finalized factor while the others were present in the media.
In the stage 5 recipe, each of seven finalized factors was removed while the other six factors remained present in the media and the expression levels of SST and PVALB were assessed compared to the presence of all seven factors. […] Thus, BDNF, (−)-Indolactam-V, and 2-phosph-L-Ascorbic Acid were included in the stage 5 recipe. […] Thus, they were excluded from the recipe. […] Therefore, these effectors were included in the stage 5 recipe for SST maturation.

[4] = system: human pluripotent stem cells; experiment: HD-DoE stage 1, additional experiment: FEZF2 expression; assay type: cell-based; settings: dynamic profile, in words
Method: To identify the recipe for stage 1 of differentiation, 96 different combinations of effectors generated using Design-of-Experiments compression through D-optimality were robotically prepared. The effector combinations were prepared in a basal media and were subsequently added to the cells, which were then allowed to differentiate. Three days later RNA extraction was performed, and gene expression was obtained using quantitative PCR analysis. The data were normalized and modeled using partial least squares regression analysis to the effector design, resulting in the generation of gene-specific models, which after model tuning for maximal Q2 predictive power, provided explanation of the effectors ability to control the expression of individual genes, combinatorically, and individually. Solutions within the tested space could then be explored to address desirability. To further enhance the conditions for forebrain differentiation from pluripotency, an additional HD-DoE experiment was performed. Additional gene regulatory models were obtained that were used for preparation of the differentiation protocol. The factors in this experiment included LDN193189, PD173074, BLU9931, Purmorphamine, SC79, MK2206, ZM336372, PD0325901, CHIR99021, XAV939, UCLA-GP130, Tofacitinib and GO6983. […] Dynamic profile analysis was also used to assess the interaction between the effectors.

[5] = system: human pluripotent stem cells; experiment: Factor criticality analysis, stage 1 recipe (dynamic profile analysis); assay type: cell-based; settings: 3500 with all factors; FIG. 12
Excerpt: To assess the impact of the elimination of each validated factor, dynamic profile analysis was used and compared the expression level of genes of interest in absence of each finalized factor while others are present. […] When Purmorphamine was removed, levels of FEZF2 and SIX3 were decreased to 1000 and below 3000, while levels of OTX2 increased to 6500.

[6] = system: forebrain-committed neural stem cells; experiment: HD-DoE stage 2, 12-factor experiment: NKX2-1 expression; assay type: cell-based, human
Method: To further guide the differentiation of forebrain-committed neural stem cells to ventral forebrain neural stem cells at stage 2, a HD-DoE experiment was performed for 3 days after termination of stage 1 treatment. […] This 12-factor experiment included LDN193189, BMP7, PD0325901, MK2206, A8301, XAV939, CHIR99021, Purmorphamine, SANT-1, AGN193109, TTNPB and GSI-XX. […]

[7] = system: forebrain-committed neural progenitor cells; experiment: HD-DoE stage 5, 8-factor experiment (GDNF, BDNF, NT-3 ...): Somatostatin expression; assay type: cell-based, human
Method: To investigate the effects of other factors on differentiation of forebrain-committed neural progenitor cells to Somatostatin interneuron cells, an additional HD-DoE experiment was performed for 3 days on cells that were treated with stage 1 to stage 4 medium for a total of 12 days prior to the new experiment. This experiment, the results of which are shown in FIG. 23, included eight effectors, GDNF, BDNF, NT-3, ß-NGF, Linoleic acid, 5-Cholesten-3β, LIF and TGF-β3. In this model, we focused on maximum expression of Somatostatin gene expressed in Somatostatin (+) interneurons (Urban-Ciecko and Barth (2016) Nature Reviews Neurosci. 17:401-409). When the model was optimized for maximum expression of Somatostatin, BDNF, NT-3, beta-NGF and Linoleic acid had the highest factor contributions, 25.7, 2, 19.9, 23.5, respectively.
Therefore, the latter were excluded in the recipe.

Molecule: O=C1O[C@H]([C@@H](O)CO)C(O)=C1OP(=O)(O)O [2-phospho-L-ascorbic acid]
- impact on expression of Somatostatin [1]: increase
- impact on expression of Somatostatin ([1]; listed as 2-phospho-L-Ascorbic acid): positive impact
- factor contribution, expression of Somatostatin [1]: 4
- impact on expression of Somatostatin ([2]; listed as 2-phosph-L-Ascorbic Acid): significant positive effect; also recorded: positive impact
- factor contribution, expression of Somatostatin [2]: 10.6
- contribution to the expression of SST [3]: positive contributions
- effect on PVALB expression [3]: not to PVALB expression
- effect on Somatostatin expression [3]: contribute

Molecule: COc1ccc2c(c1)c(C1=C(c3c[nH]c4ccccc34)C(=O)NC1=O)cn2CCCN(C)C [GO6983]
- impact on expression of FEZF2 [4]: positive impact
- expression level of FEZF2 when the factor is removed [5]: 3200

Molecule: Cc1cc(SCc2sc(-c3ccc(C(F)(F)F)c(F)c3)nc2C)ccc1OCC(=O)O [GW0742]
- impact on expression of Somatostatin [2]: significant negative impact

Molecule: CCCCCCCC/C=C\CCCCCCCC(=O)OC[C@@H](O)COP(=O)(O)O [O-LPA]
- factor contribution, expression of Somatostatin [2]: 2.7

Molecule: CCCCCCCC/C=C\CCCCCCCC(=O)O [Oleic acid]
- impact on expression of Somatostatin [1]: increase; also recorded: positive impact
- factor contribution, expression of Somatostatin [1]: 7.4

Molecule: CC(=O)O[C@@]12C[C@@H](C)[C@@]3(O)[C@@H](C=C(CO)C[C@]4(O)C(=O)C(C)=C[C@@H]34)[C@@H]1C2(C)C [Prostratin]
- impact on expression of Somatostatin [2]: significant positive effect; also recorded: positive impact
- factor contribution, expression of Somatostatin [2]: 6.4
- effect on PVALB expression [3]: not to PVALB expression
- effect on Somatostatin expression [3]: contribute

Molecule: Cc1nn(-c2ccccc2)c(C)c1/C=N/N1CCN(Cc2ccccc2)CC1 [SANT-1]
- impact on expression of NKX2-1 ([6]; model / dynamic profile, in words): negative impact
- factor contribution, expression of NKX2-1 ([6]; negative role, model optimized for maximum NKX2-1): 26.3

Molecule: CC(=O)C(=O)[O-].[Na+] [Sodium Pyruvate]
- impact on expression of Somatostatin [2]: significant negative impact

Molecule: COC(=O)CCC(=O)C(=O)OC [dm-αKG]
- impact on expression of Somatostatin [2]: significant negative impact

Molecule: (−)-Indolactam-V
- impact on expression of Somatostatin [1]: increase; also recorded: positive impact
- factor contribution, expression of Somatostatin [1]: 5.2
- contribution to the expression of SST [3]: positive contributions

B1: BDNF: brain-derived neurotrophic factor; BDNF pathway agonist (protein, UniProt P23560 129-247, looked up)
Neurotrophic factor BDNF: HSDPARRGELSVCDSISEWVTAADKKTAVDMSGGTVTVLEKVPVSKGQLKQYFYETKCNPMGYTKEGCRGIDKRHWNSQCRTTQSYVRALTMDSKKRIGWRFIRIDTSCVCTLTIKRGR
modifications: Neurotrophic factor BDNF
notes: brain-derived neurotrophic factor; BDNF pathway agonist
- impact on expression of Somatostatin [1]: increase; also recorded: positive impact
- factor contribution, expression of Somatostatin [1]: 8.1
- impact on expression of Somatostatin ([7]; FIG. 24 dynamic profile, in words): significant effect; also recorded: positive effect; also recorded: positive impact
- factor contribution, expression of Somatostatin ([7]; positive, 8-factor experiment of FIG. 23): 25.7
- impact on expression of Somatostatin [2]: significant positive effect; also recorded: positive impact
- factor contribution, expression of Somatostatin [2]: 1.75 and 1.7
- contribution to the expression of SST [3]: positive contributions
- effect on expression of Somatostatin ([3]; stage 5, experiment of FIG. 29, in words): contribute to the maximal expression
- effect on PVALB expression [3]: not to PVALB expression
- effect on Somatostatin expression [3]: contribute
